Data reported in patent publication US10751304B2, “Topical and transdermal delivery of HIF-1 modulators to prevent and treat chronic wounds” (The Board of Trustees of the Leland Stanford Junior …, priority 2008, dated 2020).
Entries after “also recorded” stand apart in the source; their conditions may differ.

Assays:
VEGF = VEGF ELISA of harvested wounds; assay type: in vivo, murine; details: control 100 ng/ml
Protocol: ELISA. Total protein was isolated from harvested wounds by homogenizing tissue in RIPA buffer. VEGF and SDF-1 levels were measured using the Quantikine murine VEGF and SDF-1 ELISA kits (R&D Systems, Minneapolis, Minn.) according to manufacturer's instructions.

[1] = test system: pressure ulcers on the dorsum of aged mice; experiment: Murine pressure (decubitus) ulcer model in aged mice; assay type: in vivo; details: n=6
Excerpt: (§1) Pressure ulcers on the dorsum of aged mice (19 month, NIA) and Diabetic (Db/Db) C57Bl/6 mice (n=6 per group) where created using two ceramic magnets (12 mm diameter and 5 mm thick, and average weight of 2.4 g) that apply 50 mm Hg pressure to the skin between them (Stadler et. al. J Invest Surg. 2004 July-August; 17(4):221-7). A single ischemia/reperfusion (I/R) cycle consists of placement of magnets (ischemia) for a designated time period followed by release (reperfusion). Three ischemia-reperfusion cycles were used in each animal to initiate decubitus ulcer formation (either in 3 h or 12 h cycles). Animals were housed individually, to prevent the accidental dislocation of the magnets and to prevent tampering with the resultant ulcer.
(§2) CD31 staining was performed on paraffin embedded 5-micron wound sections (1:50, Santa Cruz Biotechnology, Santa Cruz, Calif.) diluted in blocking goat serum overnight at 4° C. […] Sections were then mounted with Vectashield plus DAPI (Vector Laboratories, Burlingame, Calif.), and analyzed using a Zeiss Axioplan 2 light-fluorescent microscope (Carl Zeiss Vision, Germany) equipped with Zeiss AxioCam HR digital imaging software (Carl Zeiss Vision). […]
We evaluated the ability of DFO to prevent pressure ulcer formation, which has been associated with HIF-1α dysfunction and diabetes, using a previously described murine pressure ulcer model. […]

[2] = test system: excisional wounds of diabetic (Db/Db) mice; experiment: Murine excisional wound healing model, diabetic (Db/Db) mice; assay type: in vivo; details: topical, delivery control day 23
Excerpt: Young (8 weeks, Jackson Laboratories) aged (18-24 months, National Institute of Aging aged rodent colony), and Diabetic (Db/Db) C57/BL6 mice (n=4 per group) underwent excisional wound biopsies in accordance with the Stanford University Institutional Animal Care and Use Committees. Wounds were made as previously described. Briefly, two 6-mm circular, full-thickness wounds were made on the dorsum of mice. A 12 mm diameter, 0.5 mm thick donut shaped silicone ring (Grace Bio-Labs, Bend, Oreg.) was then placed around the wounds preventing premature skin contracture. […] Wounds were dressed with a sterile occlusive dressing that was changed daily, monitored, and photographed every other day until closure. […]
as §2
Transdermal delivery of DFO accelerates murine wound healing: Given the optimal release properties and structural parameters determined above, we sought to evaluate the ability of our DFO delivery device to improve gross wound healing in diabetic mice. […]

diabetic ulcers = experiment: Murine pressure ulcer model, diabetic mice, transdermal patch; assay type: in vivo; details: transdermal patch delivery; controls Day 45+
Excerpt: as §1
30 μm fresh frozen sections were washed with PBS and stained with 10 μM Dihydroethidium (DHE, invitrogen) at 37 C for 30 minutes. Slides were then washed with PBS, and Vectashield with DAPI was added.
Transdermal delivery of DFO reduces ROS accumulation and ulcer formation: We have completed studies examining the ability of our DFO patch to ameliorate diabetes-associated deficits in wound healing using our pressure ulcer model. This injury model causes increased levels of ROS, as assayed using dihydroethidium (DHE) fluorescent staining.

[3] = DFO patch release and skin penetration (Example 4); assay type: in vitro ADME

Compound: CC(=O)N(O)CCCCCNC(=O)CCC(=O)N(O)CCCCCNC(=O)CCC(=O)N(O)CCCCCN [deferoxamine]
- VEGF via ELISA (VEGF): 200 ng/mL
- ulcer closure date ([1]; controls day 19): 17 days
- Ulcer incidence ([1]; pressure ulcer model, controls 100%): 33%
- wound closure [2]: 13 days
- diabetic ulcer closure (diabetic ulcers): 30 days
- DFO uptake into the skin / DFO delivery ([3]; reverse micelles destabilized using 5% DMSO, listed as DFO): inhibit DFO delivery; also recorded: significantly reduces the DFO uptake into the skin
- drug penetration ([3]; without an occlusive backing): very minimal drug penetration
- reduction in skin penetration of DFO ([3]; without backing membrane): 10 fold
